Data reported in the supplement of paper PMC10331698.
± gives the standard deviation of the averaged measurements.

How the values were obtained:
Experiment in all cases: level (log10 ratio to DMSO vehicle control); higher = higher biomarker level / cell amount than vehicle control
[1] = compound: NC(=O)C(F)(F)C(F)(F)F [Pentafluoropropionamide]; conditions: in DMSO
Method: (§1)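 BioMAP Diversity Plus panel of 12 human primary cell co-culture systems (3C, 4H, LPS, SAg, BT, BF4T, BE3C, CASM3C, HDF3CGF, KF3CT, MyoF, Mphg). Compounds were added 1 h before stimulation and left for 24 h (MyoF 48 h; BT 72 h for soluble read-outs or 6 d for IgG). Biomarkers were read by ELISA, cytotoxicity by SRB, PBMC viability and proliferation by Alamar Blue. Each well value was divided by the mean of 8 DMSO control wells on the same plate and log10 transformed; duplicate blinded samples were tested at 4 concentrations.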

[2] = compound: OCCCC(F)(F)C(F)(F)C(F)(F)C(F)(F)C(F)(F)C(F)(F)C(F)(F)F [7:3 Fluorotelomer alcohol]; conditions: 6700 nM; in DMSO
Method: as §1

[3] = compound: O=S(=O)(O)C(F)(F)C(F)(F)C(F)(F)C(F)(F)C(F)(F)C(F)(F)F [Perfluorohexanesulfonic acid]; conditions: in DMSO
Method: as §1

[4] = compound: O=C(O)C(F)(F)C(F)(F)C(F)(F)C(F)(F)C(F)(F)C(F)(F)C(F)(F)C(F)F [9-H-Perfluorononanoic acid]; conditions: in DMSO
Method: as §1

[5] = compound: OCCC(F)(F)C(F)(F)C(F)(F)C(F)(F)C(F)(F)C(F)(F)F [6:2 Fluorotelomer alcohol]; conditions: in DMSO
Method: as §1

[6] = compound: C=CC(=O)OCC(F)(F)C(F)(F)C(F)(F)C(F)(F)C(F)(F)C(F)(F)C(F)(F)F [1H,1H-Perfluorooctyl acrylate]; conditions: in DMSO
Method: as §1

[7] = compound: FC(F)(F)C(F)(F)C(F)(F)C(F)(F)C(F)(F)CCI [1-Iodo-1H,1H,2H,2H-perfluoroheptane]; conditions: in DMSO
Method: as §1

In the case of BF4T:MMP-9, the “level (log10)” value ([1]; 6700 nM) is reported as 0.02 ± 0.024, the “level (log10)” value ([1]; 20000 nM) is reported as -0.001 ± 0.021 and the “level (log10)” value ([1]; 60000 nM) is reported as 0.027 ± 0.0042. For the same test system, the “level (log10)” value [2] was -0.0235 ± 0.018, the “level (log10)” value ([3]; 6700 nM) was 0.006 ± 0.065 and the “level (log10)” value ([3]; 20000 nM) was 0.0115 ± 0.073. The “level (log10)” value ([3]; 60000 nM) was 0.0135 ± 0.056, the “level (log10)” value ([4]; 6700 nM) was -0.073 ± 0.045 and the “level (log10)” value ([4]; 20000 nM) was -0.039 ± 0.0071. The “level (log10)” value ([4]; 60000 nM) was -0.004 ± 0.0014, the “level (log10)” value ([5]; 6700 nM) was -0.0025 ± 0.011 and the “level (log10)” value ([5]; 20000 nM) was -0.0105 ± 0.00071. For the same test system, the “level (log10)” value ([6]; 6700 nM) was 0.0065 ± 0.028, the “level (log10)” value ([6]; 20000 nM) was 0.0035 ± 0.016 and the “level (log10)” value ([6]; 60000 nM) was 0.015 ± 0.033. For the same test system, the “level (log10)” value ([7]; 6700 nM) was 0.01 ± 0.0014, the “level (log10)” value ([7]; 20000 nM) was 0.03 ± 0.0014 and the “level (log10)” value ([7]; 60000 nM) was 0.065 ± 0.017.
For BF4T:PAI-I, the “level (log10)” value ([1]; 6700 nM) was -0.0005 ± 0.0035, the “level (log10)” value ([1]; 20000 nM) was -0.005 ± 0.016 and the “level (log10)” value ([1]; 60000 nM) was 0.0015 ± 0.011. For the same test system, the “level (log10)” value [2] was -0.0105 ± 0.005, the “level (log10)” value ([3]; 6700 nM) was 0.0005 ± 0.03 and the “level (log10)” value ([3]; 20000 nM) was -0.015 ± 0.017. For the same test system, the “level (log10)” value ([3]; 60000 nM) was -0.018 ± 0.0028, the “level (log10)” value ([4]; 6700 nM) was -0.099 ± 0.0028 and the “level (log10)” value ([4]; 20000 nM) was -0.0915 ± 0.0021. The “level (log10)” value ([4]; 60000 nM) was -0.114 ± 0.0099, the “level (log10)” value ([5]; 6700 nM) was 0.013 ± 0.013 and the “level (log10)” value ([5]; 20000 nM) was 0.011 ± 0.0099. For the same test system, the “level (log10)” value ([6]; 6700 nM) was 0.008 ± 0.0014, the “level (log10)” value ([6]; 20000 nM) was 0 ± 0.0014 and the “level (log10)” value ([6]; 60000 nM) was 0.0025 ± 0.013. The “level (log10)” value ([7]; 6700 nM) was 0.012 ± 0.014, the “level (log10)” value ([7]; 20000 nM) was 0.005 ± 0.0014 and the “level (log10)” value ([7]; 60000 nM) was 0.0135 ± 0.016.
BF4T:SRB was tested, and the “level (log10)” value ([1]; 6700 nM) was -0.0035 ± 0.00071, the “level (log10)” value ([1]; 20000 nM) was -0.007 ± 0.0071 and the “level (log10)” value ([1]; 60000 nM) was -0.004 ± 0.0042. The “level (log10)” value [2] was -0.008 ± 0.017, the “level (log10)” value ([3]; 6700 nM) was -0.01 ± 0.0085 and the “level (log10)” value ([3]; 20000 nM) was -0.0115 ± 0.0078. The “level (log10)” value ([3]; 60000 nM) was -0.0005 ± 0.0021, the “level (log10)” value ([4]; 6700 nM) was -0.018 ± 0.0085 and the “level (log10)” value ([4]; 20000 nM) was -0.018 ± 0.0071. For the same test system, the “level (log10)” value ([4]; 60000 nM) was -0.016 ± 0.0014, the “level (log10)” value ([5]; 6700 nM) was -0.0065 ± 0.005 and the “level (log10)” value ([5]; 20000 nM) was -0.0055 ± 0.0078. For the same test system, the “level (log10)” value ([6]; 6700 nM) was -0.003, the “level (log10)” value ([6]; 20000 nM) was -0.0055 ± 0.011 and the “level (log10)” value ([6]; 60000 nM) was 0.002 ± 0.025. The “level (log10)” value ([7]; 6700 nM) was -0.003 ± 0.0014, the “level (log10)” value ([7]; 20000 nM) was -0.0035 ± 0.00071 and the “level (log10)” value ([7]; 60000 nM) was 0.006 ± 0.016.
BF4T:tPA was tested, and the “level (log10)” value ([1]; 6700 nM) was -0.013 ± 0.0028, the “level (log10)” value ([1]; 20000 nM) was -0.014 ± 0.0042 and the “level (log10)” value ([1]; 60000 nM) was 0 ± 0.02. The “level (log10)” value [2] was 0.0105 ± 0.015, the “level (log10)” value ([3]; 6700 nM) was -0.004 ± 0.023 and the “level (log10)” value ([3]; 20000 nM) was -0.0125 ± 0.013. For the same test system, the “level (log10)” value ([3]; 60000 nM) was 0.022 ± 0.0057, the “level (log10)” value ([4]; 6700 nM) was -0.094 ± 0.014 and the “level (log10)” value ([4]; 20000 nM) was -0.128 ± 0.012. For the same test system, the “level (log10)” value ([4]; 60000 nM) was -0.122 ± 0.019, the “level (log10)” value ([5]; 6700 nM) was -0.0215 ± 0.032 and the “level (log10)” value ([5]; 20000 nM) was -0.0135 ± 0.021. The “level (log10)” value ([6]; 6700 nM) was -0.0045 ± 0.013, the “level (log10)” value ([6]; 20000 nM) was 0.0025 ± 0.0021 and the “level (log10)” value ([6]; 60000 nM) was -0.0075 ± 0.025. The “level (log10)” value ([7]; 6700 nM) was -0.0055 ± 0.012, the “level (log10)” value ([7]; 20000 nM) was -0.003 ± 0.011 and the “level (log10)” value ([7]; 60000 nM) was 0.0065 ± 0.012.
With BF4T:uPA the “level (log10)” value ([1]; 6700 nM) was -0.013 ± 0.0085, the “level (log10)” value ([1]; 20000 nM) was -0.0075 ± 0.0078 and the “level (log10)” value ([1]; 60000 nM) was 0.0045 ± 0.018. For the same test system, the “level (log10)” value [2] was -0.011 ± 0.0057, the “level (log10)” value ([3]; 6700 nM) was -0.002 ± 0.027 and the “level (log10)” value ([3]; 20000 nM) was -0.007 ± 0.02. The “level (log10)” value ([3]; 60000 nM) was -0.0035 ± 0.037, the “level (log10)” value ([4]; 6700 nM) was -0.0085 ± 0.016 and the “level (log10)” value ([4]; 20000 nM) was -0.0195 ± 0.012. For the same test system, the “level (log10)” value ([4]; 60000 nM) was 0.001 ± 0.013, the “level (log10)” value ([5]; 6700 nM) was -0.0185 ± 0.012 and the “level (log10)” value ([5]; 20000 nM) was -0.006 ± 0.011. For the same test system, the “level (log10)” value ([6]; 6700 nM) was -0.002 ± 0.0014, the “level (log10)” value ([6]; 20000 nM) was 0.0035 ± 0.00071 and the “level (log10)” value ([6]; 60000 nM) was 0.001 ± 0.0042. For the same test system, the “level (log10)” value ([7]; 6700 nM) was 0.0125 ± 0.033, the “level (log10)” value ([7]; 20000 nM) was 0.005 ± 0.0071 and the “level (log10)” value ([7]; 60000 nM) was 0.0135 ± 0.0064.
For BT:B cell Proliferation, the “level (log10)” value ([1]; 6700 nM) was 0.005 ± 0.057, the “level (log10)” value ([1]; 20000 nM) was -0.0215 ± 0.019 and the “level (log10)” value ([1]; 60000 nM) was 0.0205 ± 0.019. For the same test system, the “level (log10)” value [2] was -0.011 ± 0.0042, the “level (log10)” value ([3]; 6700 nM) was -0.0075 ± 0.047 and the “level (log10)” value ([3]; 20000 nM) was 0.0015 ± 0.053. The “level (log10)” value ([3]; 60000 nM) was 0.063 ± 0.024, the “level (log10)” value ([4]; 6700 nM) was 0.0245 ± 0.0021 and the “level (log10)” value ([4]; 20000 nM) was 0.0495 ± 0.00071. The “level (log10)” value ([4]; 60000 nM) was 0.108 ± 0.0028, the “level (log10)” value ([5]; 6700 nM) was 0.022 ± 0.0057 and the “level (log10)” value ([5]; 20000 nM) was -0.01 ± 0.014. The “level (log10)” value ([6]; 6700 nM) was -0.0405 ± 0.05, the “level (log10)” value ([6]; 20000 nM) was -0.0195 ± 0.056 and the “level (log10)” value ([6]; 60000 nM) was -0.052 ± 0.048. For the same test system, the “level (log10)” value ([7]; 6700 nM) was -0.0065 ± 0.049, the “level (log10)” value ([7]; 20000 nM) was 0.0095 ± 0.015 and the “level (log10)” value ([7]; 60000 nM) was -0.0815 ± 0.023.
For BT:PBMC Cytotoxicity, the “level (log10)” value ([1]; 6700 nM) was 0.0065 ± 0.042, the “level (log10)” value ([1]; 20000 nM) was 0.013 ± 0.034 and the “level (log10)” value ([1]; 60000 nM) was -0.02 ± 0.0014. The “level (log10)” value [2] was 0.0245 ± 0.035, the “level (log10)” value ([3]; 6700 nM) was 0.0015 ± 0.016 and the “level (log10)” value ([3]; 20000 nM) was 0.0325 ± 0.0035. The “level (log10)” value ([3]; 60000 nM) was 0.061 ± 0.0057, the “level (log10)” value ([4]; 6700 nM) was -0.009 ± 0.055 and the “level (log10)” value ([4]; 20000 nM) was 0.0435 ± 0.025. For the same test system, the “level (log10)” value ([4]; 60000 nM) was 0.103, the “level (log10)” value ([5]; 6700 nM) was -0.0185 ± 0.026 and the “level (log10)” value ([5]; 20000 nM) was -0.035 ± 0.0071. For the same test system, the “level (log10)” value ([6]; 6700 nM) was -0.032 ± 0.071, the “level (log10)” value ([6]; 20000 nM) was -0.0405 ± 0.056 and the “level (log10)” value ([6]; 60000 nM) was -0.092 ± 0.068. The “level (log10)” value ([7]; 6700 nM) was -0.012 ± 0.03, the “level (log10)” value ([7]; 20000 nM) was -0.0265 ± 0.028 and the “level (log10)” value ([7]; 60000 nM) was -0.024 ± 0.011.
